In patent US11497212B2, “Substituted thiophenyl uracils, salts thereof and the use thereof as herbicidal agents” (Syngenta Crop Protection AG, priority 2017, dated 2022):

What was measured:
Type in all cases: in vivo
Setaria viridis [1] = experiment: Herbicidal action post-emergence (greenhouse pot trial); conditions: application rate 80 g/ha, scored visually after about 3 weeks vs untreated controls
Outline: (§1)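 One-leaf-stage seedlings, 2–3 weeks old, are treated on their green parts with an aqueous emulsion or suspension of the test compound (WP or EC, 0.5% additive) using 600 L/ha of water at up to 80 g/ha. About 3 weeks on, percent kill is estimated visually versus untreated plants.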

Viola tricolor [2] = experiment: as above; conditions: application rate 80 g/ha
Outline: as §1

Amaranthus retroflexus [3] = experiment: as above; conditions: application rate 80 g/ha, scored visually after about 3 weeks vs untreated controls
Outline: as §1

Polygonum convolvulus = experiment: as above; conditions: application rate 80 g/ha, scored visually after about 3 weeks vs untreated controls
Outline: as §1

Pharbitis purpurea [4] = experiment: as above; conditions: application rate 80 g/ha
Outline: as §1

Matricaria inodora [5] = experiment: as above; conditions: application rate 80 g/ha, scored visually after about 3 weeks vs untreated controls
Outline: as §1

Stellaria media [6] = experiment: as above; conditions: application rate 80 g/ha, scored visually after about 3 weeks vs untreated controls
Outline: as §1

Abutilon theophrasti [7] = experiment: as above; conditions: application rate 80 g/ha, scored visually after about 3 weeks vs untreated controls
Outline: as §1

Veronica persica [8] = experiment: as above; conditions: application rate 80 g/ha
Outline: as §1

Alopecurus myosuroides [9] = experiment: as above; conditions: application rate 80 g/ha, scored visually after about 3 weeks vs untreated controls
Outline: as §1

Glycine max = experiment: Crop compatibility pre-emergence (greenhouse pot trial); conditions: application rate 20 g/ha, effect vs untreated controls
Outline: (§2)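 After soil-surface application of each compound to freshly sown pots (aqueous spray, 600 L/ha, 0.5% additive), plants grew under greenhouse conditions. Around 3 weeks later, injury was estimated visually on a 0–100% scale against controls.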

Oryza sativa [10] = experiment: as above; conditions: effect vs untreated controls
Outline: as §2

Zea mays [11] = experiment: as above; conditions: effect vs untreated controls
Outline: as §2

Oryza sativa [12] = experiment: Crop compatibility post-emergence (greenhouse pot trial); conditions: application rate 20 g/ha
Outline: (§3)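 Visual % damage vs untreated controls, ~3 wk post-spray (100% = plants died, 0% = as control). Plants in sandy loam, greenhouse, sprayed at one-leaf stage (2–3 wk after sowing); WP/EC in water + 0.5% additive, 600 L/ha.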

Zea mays [13] = experiment: as above; conditions: application rate 80 g/ha
Outline: as §3

Triticum aestivum = experiment: as above; conditions: application rate 20 g/ha
Outline: as §3

Setaria viridis [14] = experiment: Herbicidal action pre-emergence (greenhouse pot trial); conditions: application rate 320 g/ha, scored after about 3 weeks
Outline: (§4)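 Efficacy (%) was estimated visually about 3 wk post-application by comparing treated pots with untreated controls, where 0% denotes plants resembling controls and 100% denotes dead plants. Dose was 320 g/ha or less.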

Echinochloa crus-galli [15] = experiment: as above; conditions: application rate 320 g/ha, scored after about 3 weeks
Outline: as §4

Viola tricolor [16] = experiment: as above; conditions: application rate 320 g/ha, scored after about 3 weeks
Outline: as §4

Amaranthus retroflexus [17] = experiment: as above; conditions: application rate 320 g/ha, scored after about 3 weeks
Outline: as §4

Avena fatua [18] = experiment: as above; conditions: application rate 320 g/ha
Outline: as §4

Lolium rigidum = experiment: as above; conditions: application rate 320 g/ha
Outline: as §4

Hordeum murinum = experiment: as above; conditions: application rate 320 g/ha
Outline: as §4

Pharbitis purpurea [19] = experiment: as above; conditions: application rate 320 g/ha
Outline: as §4

Matricaria inodora [20] = experiment: as above; conditions: application rate 320 g/ha, scored after about 3 weeks
Outline: as §4

Cyperus esculentus = experiment: as above; conditions: application rate 320 g/ha
Outline: as §4

Stellaria media [21] = experiment: as above; conditions: application rate 320 g/ha, scored after about 3 weeks
Outline: as §4

Abutilon theophrasti [22] = experiment: as above; conditions: application rate 320 g/ha, scored after about 3 weeks
Outline: as §4

Veronica persica [23] = experiment: as above; conditions: application rate 320 g/ha
Outline: as §4

Alopecurus myosuroides [24] = experiment: as above; conditions: application rate 320 g/ha, scored after about 3 weeks
Outline: as §4

Echinochloa crus-galli [25] = experiment: Herbicidal action post-emergence (greenhouse pot trial); conditions: application rate 80 g/ha, scored visually after about 3 weeks vs untreated controls
Outline: as §1

Avena fatua [26] = experiment: as above; conditions: application rate 80 g/ha, scored visually after about 3 weeks vs untreated controls
Outline: as §1

Row | Structure (SMILES) | Setaria viridis (Efficacy in %) (Setaria viridis [1]) [%] | Viola tricolor (Efficacy in %) (Viola tricolor [2]) [%] | Amaranthus retroflexus (Efficacy in %) (Amaranthus retroflexus [3]) [%] | Polygonum convolvulus (Efficacy in %) (Polygonum convolvulus) [%] | Pharbitis purpurea (Efficacy in %) (Pharbitis purpurea [4]) [%] | Matricaria inodora (Efficacy in %) (Matricaria inodora [5]) [%] | Stellaria media (Efficacy in %) (Stellaria media [6]) [%] | Abutilon theophrasti (Efficacy in %) (Abutilon theophrasti [7]) [%] | Veronica persica (Efficacy in %) (Veronica persica [8]) [%] | Alopecurus myosuroides (Efficacy in %) (Alopecurus myosuroides [9]) [%] | Zea mays (Efficacy in %) (Zea mays [13]) [%] | Setaria viridis (Efficacy in %) (Setaria viridis [14]) [%] | Echinochloa crus-galli (Efficacy in %) (Echinochloa crus-galli [15]) [%] | Viola tricolor (Efficacy in %) (Viola tricolor [16]) [%] | Amaranthus retroflexus (Efficacy in %) (Amaranthus retroflexus [17]) [%] | Avena fatua (Efficacy in %) (Avena fatua [18]) [%] | Pharbitis purpurea (Efficacy in %) (Pharbitis purpurea [19]) [%] | Matricaria inodora (Efficacy in %) (Matricaria inodora [20]) [%] | Stellaria media (Efficacy in %) (Stellaria media [21]) [%] | Abutilon theophrasti (Efficacy in %) (Abutilon theophrasti [22]) [%] | also measured
1 | CC(Sc1cc(-n2c(=O)cc(C(F)(F)F)n(C)c2=O)c(F)cc1Cl)C(=O)NCC1(C)CCCO1 (centres unmarked) [I.1-224] | 100 | 100 | 100 | 100 | 100 | 100 | 80 | 100 | 100 | 80 | 20 | 100 | 100 | 100 | 100 | 100 | 100 | 100 | 100 | 100 | Glycine max (Efficacy in %) (Glycine max): 0%; Oryza sativa (Efficacy in %) (Oryza sativa [10]; application rate 20 g/ha): 0%; Zea mays (Efficacy in %) (Zea mays [11]; application rate 20 g/ha): 0%; Oryza sativa (Efficacy in %) (Oryza sativa [12]): 10%; Triticum aestivum (Efficacy in %) (Triticum aestivum): 20%; Lolium rigidum (Efficacy in %) (Lolium rigidum): 100%; Hordeum murinum (Efficacy in %) (Hordeum murinum): 100%; Cyperus esculentus (Efficacy in %) (Cyperus esculentus): 90%; Veronica persica (Efficacy in %) (Veronica persica [23]): 100%; Alopecurus myosuroides (Efficacy in %) (Alopecurus myosuroides [24]): 100%
2 | Cn1c(C(F)(F)F)cc(=O)n(-c2cc(SCC(=O)NCC3CCCO3)c(Cl)cc2F)c1=O (centres unmarked) [I.8-271] | 100 | 100 | 100 | 100 | 100 | 100 | 100 | 100 | 100 | 100 | 20 | 100 | 80 | 100 | 100 | 90 | 100 | 100 | 90 | 100 | Echinochloa crus-galli (Efficacy in %) (Echinochloa crus-galli [25]): 80%; Avena fatua (Efficacy in %) (Avena fatua [26]): 90%; Oryza sativa (Efficacy in %) (Oryza sativa [10]; application rate 80 g/ha): 0%; Zea mays (Efficacy in %) (Zea mays [11]; application rate 80 g/ha): 20%; Veronica persica (Efficacy in %) (Veronica persica [23]): 100%; Alopecurus myosuroides (Efficacy in %) (Alopecurus myosuroides [24]): 90%
